Laboratory results published in patent US20230085307A1, “PYRIDAZINONE COMPOUND AND HERBICIDE” (NISSAN CHEMICAL CORPORATION, priority 2019, published 2023).

Experiments:
[1] = tested on: late watergrass; experiment: Test Example 1: herbicidal activity, application before weed generation under submerged conditions (Table 16, symbol A); type: in vivo, late watergrass (Echinochloa oryzicola); settings: 320 g/ha applied herbicide
Procedure, shortened: (§1)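 Submerged Wagner pots (alluvial soil, 4 cm water) sown with weed seeds and planted with 2.5-leaf rice seedlings; emulsifiable concentrate diluted in water applied to water surface on sowing day. Held in greenhouse at 25-30 °C; injury scored 0-5 by herbicidal rate after three weeks.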

[2] = tested on: Japanese bulrush; experiment: Test Example 1: herbicidal activity, application before weed generation under submerged conditions (Table 16, symbol B); type: in vivo, Japanese bulrush (Schoenoplectus juncoides); settings: 320 g/ha applied herbicide
Procedure, shortened: as §1

[3] = tested on: oval-leafed pondweed; experiment: Test Example 1: herbicidal activity, application before weed generation under submerged conditions (Table 16, symbol C); type: in vivo, oval-leafed pondweed (Monochoria vaginalis); settings: 320 g/ha applied herbicide
Procedure, shortened: as §1

[4] = tested on: barnyard grass; experiment: Test Example 3: herbicidal effect by foliage application, Wagner pot (Table 18, symbol H); type: in vivo, barnyard grass (Echinochloa crus-galli)
Procedure, shortened: (§2)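 Plants were sown in alluvial soil held under 0.1–0.5 cm standing water and grown 14 days in a greenhouse at 25–30 °C. An emulsifiable formulation, water-diluted to the set dose, was then sprayed onto the foliage, and effects were scored three weeks later using previously defined criteria.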

[5] = tested on: Chinese sprangletop; experiment: Test Example 3: herbicidal effect by foliage application, Wagner pot (Table 18, symbol D); type: in vivo, chinese sprangletop (Leptochloa chinensis)
Procedure, shortened: as §2

[6] = tested on: rice flat sedge; experiment: Test Example 3: herbicidal effect by foliage application, Wagner pot (Table 18, symbol E); type: in vivo, rice flat sedge (Cyperus iria)
Procedure, shortened: as §2

[7] = tested on: southern crabgrass; experiment: Test Example 5: herbicidal effect by foliage application, plastic box (Table 20, symbol F); type: in vivo, southern crabgrass (Digitaria ciliaris); settings: foliage application
Procedure, shortened: (§3)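 Plants were sown into sterilized diluvial soil under about 1.5 cm cover and kept in a greenhouse at 25° C. to 30° C. Fourteen days on, foliage received an even spray of the diluted emulsion. Herbicidal or crop effect was judged three weeks afterwards.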

[8] = tested on: green foxtail; experiment: Test Example 5: herbicidal effect by foliage application, plastic box (Table 20, symbol G); type: in vivo, green foxtail (Setaria viridis); settings: foliage application
Procedure, shortened: as §3

[9] = tested on: barnyard grass; experiment: Test Example 5: herbicidal effect by foliage application, plastic box (Table 20, symbol H); type: in vivo, barnyard grass (Echinochloa crus-galli); settings: foliage application
Procedure, shortened: as §3

[10] = tested on: wild oat; experiment: Test Example 5: herbicidal effect by foliage application, plastic box (Table 20, symbol I); type: in vivo, wild oat (Avena fatua); settings: foliage application
Procedure, shortened: as §3

[11] = tested on: blackgrass; experiment: Test Example 5: herbicidal effect by foliage application, plastic box (Table 20, symbol J); type: in vivo, blackgrass (Alopecurus myosuroides); settings: foliage application
Procedure, shortened: as §3

[12] = tested on: Italian ryegrass; experiment: Test Example 5: herbicidal effect by foliage application, plastic box (Table 20, symbol K); type: in vivo, Italian ryegrass (Lolium multiflorum); settings: foliage application
Procedure, shortened: as §3

[13] = tested on: windgrass; experiment: Test Example 5: herbicidal effect by foliage application, plastic box (Table 20, symbol L); type: in vivo, windgrass (Apera spica-venti); settings: foliage application
Procedure, shortened: as §3

[14] = tested on: velvetleaf; experiment: Test Example 5: herbicidal effect by foliage application, plastic box (Table 20, symbol M); type: in vivo, velvetleaf (Abutilon theophrasti); settings: foliage application
Procedure, shortened: as §3

[15] = tested on: redroot pigweed; experiment: Test Example 5: herbicidal effect by foliage application, plastic box (Table 20, symbol N); type: in vivo, redroot pigweed (Amaranthus retroflexus); settings: foliage application
Procedure, shortened: as §3

[16] = tested on: lambsquarters; experiment: Test Example 5: herbicidal effect by foliage application, plastic box (Table 20, symbol O); type: in vivo, lambsquarters (Chenopodium album); settings: foliage application
Procedure, shortened: as §3

[17] = tested on: chickweed; experiment: Test Example 5: herbicidal effect by foliage application, plastic box (Table 20, symbol P); type: in vivo, common chickweed (Stellaria media); settings: foliage application
Procedure, shortened: as §3

[18] = tested on: false cleavers; experiment: Test Example 5: herbicidal effect by foliage application, plastic box (Table 20, symbol Q); type: in vivo, false cleavers (Galium spurium); settings: foliage application
Procedure, shortened: as §3

[19] = tested on: persian speedwell; experiment: Test Example 5: herbicidal effect by foliage application, plastic box (Table 20, symbol R); type: in vivo, Persian speedwell (Veronica persica); settings: foliage application
Procedure, shortened: as §3

[20] = amount of applied herbicide 320 g/ha
[21] = AAH 320 g/ha, evaluated three weeks after application
[22] = AAH 320 g/ha, three weeks after application
[23] = 320 g/ha, three weeks after application

## C=CCOc1cccc(-c2sc3ccc(F)cc3c2-c2c(O)c(C)nn(C)c2=O)c1 [2-269]
[1]
  Herbicidal effect on A: late watergrass (grade 0-5): 3 (Herbicidal rate of 40% or more and less than 70%)
[2]
  Herbicidal effect on B: Japanese bulrush (grade 0-5): 3 (Herbicidal rate of 40% or more and less than 70%)
[3]
  Herbicidal effect on C: oval-leafed pondweed (grade 0-5): 3 (Herbicidal rate of 40% or more and less than 70%)
[4]; [20]
  herbicidal effect on H: barnyard grass: 3 (Herbicidal rate of 40% or more and less than 70%)
[5]; [20]
  herbicidal effect on D: Chinese sprangletop: 0 (Herbicidal rate of 5% or less (almost no effect))
[6]; [20]
  herbicidal effect on E: rice flat sedge: 3 (Herbicidal rate of 40% or more and less than 70%)
[7]; [21]
  F: southern crabgrass, herbicidal effect (criteria 0-5): 0 (Herbicidal rate of 5% or less (almost no effect))
[8]; [21]
  G: green foxtail, herbicidal effect (criteria 0-5): 0 (Herbicidal rate of 5% or less (almost no effect))
[9]; [21]
  H: barnyard grass, herbicidal effect (criteria 0-5): 0 (Herbicidal rate of 5% or less (almost no effect))
[10]; [21]
  I: wild oat, herbicidal effect (criteria 0-5): 0 (Herbicidal rate of 5% or less (almost no effect))
[11]; [21]
  J: blackgrass, herbicidal effect (criteria 0-5): 0 (Herbicidal rate of 5% or less (almost no effect))
[12]; [21]
  K: Italian ryegrass, herbicidal effect (criteria 0-5): 0 (Herbicidal rate of 5% or less (almost no effect))
[13]; [21]
  L: windgrass, herbicidal effect (criteria 0-5): 0 (Herbicidal rate of 5% or less (almost no effect))
[14]; [21]
  M: velvetleaf, herbicidal effect (criteria 0-5): 0 (Herbicidal rate of 5% or less (almost no effect))
[15]; [21]
  N: redroot pigweed, herbicidal effect (criteria 0-5): 0 (Herbicidal rate of 5% or less (almost no effect))
[16]; [21]
  O: lambsquarters, herbicidal effect (criteria 0-5): 0 (Herbicidal rate of 5% or less (almost no effect))
[17]; [21]
  P: chickweed, herbicidal effect (criteria 0-5): 3 (Herbicidal rate of 40% or more and less than 70%)
[18]; [21]
  Q: false cleavers, herbicidal effect (criteria 0-5): 0 (Herbicidal rate of 5% or less (almost no effect))
[19]; [21]
  R: persian speedwell, herbicidal effect (criteria 0-5): 1 (Herbicidal rate of 5% or more and less than 20%)

## Cc1ccccc1C(=O)Oc1c(C)nn(C)c(=O)c1-c1c(-c2ccc3c(c2)OCCO3)sc2ccccc12 [1-093]
[1]
  Herbicidal effect on A: late watergrass (grade 0-5): 3 (Herbicidal rate of 40% or more and less than 70%)
[2]
  Herbicidal effect on B: Japanese bulrush (grade 0-5): 1 (Herbicidal rate of 5% or more and less than 20%)
[3]
  Herbicidal effect on C: oval-leafed pondweed (grade 0-5): 0 (Herbicidal rate of 5% or less (almost no effect))
[4]; 320 g/ha
  herbicidal effect on H (barnyard grass), rating 0-5: 3 (Herbicidal rate of 40% or more and less than 70%)
[5]; 320 g/ha
  herbicidal effect on D (Chinese sprangletop), rating 0-5: 0 (Herbicidal rate of 5% or less (almost no effect))
[6]; 320 g/ha
  herbicidal effect on E (rice flat sedge), rating 0-5: 5 (Herbicidal rate of 90% or more (almost completely withered))
[7]; [22]
  F: southern crabgrass, herbicidal effect: 0 (Herbicidal rate of 5% or less (almost no effect))
[8]; [22]
  G: green foxtail, herbicidal effect: 0 (Herbicidal rate of 5% or less (almost no effect))
[9]; [22]
  H: barnyard grass, herbicidal effect: 0 (Herbicidal rate of 5% or less (almost no effect))
[10]; [22]
  I: wild oat, herbicidal effect: 0 (Herbicidal rate of 5% or less (almost no effect))
[11]; [22]
  J: blackgrass, herbicidal effect: 0 (Herbicidal rate of 5% or less (almost no effect))
[12]; [22]
  K: Italian ryegrass, herbicidal effect: 0 (Herbicidal rate of 5% or less (almost no effect))
[13]; [22]
  L: windgrass, herbicidal effect: 0 (Herbicidal rate of 5% or less (almost no effect))
[14]; [22]
  M: velvetleaf, herbicidal effect: 5 (Herbicidal rate of 90% or more (almost completely withered))
[15]; [22]
  N: redroot pigweed, herbicidal effect: 3 (Herbicidal rate of 40% or more and less than 70%)
[16]; [22]
  O: lambsquarters, herbicidal effect: 2 (Herbicidal rate of 20% or more and less than 40%)
[17]; [22]
  P: chickweed, herbicidal effect: 1 (Herbicidal rate of 5% or more and less than 20%)
[18]; [22]
  Q: false cleavers, herbicidal effect: 0 (Herbicidal rate of 5% or less (almost no effect))
[19]; [22]
  R: persian speedwell, herbicidal effect: 4 (Herbicidal rate of 70% or more and less than 90%)

## CCCCCCOc1ccc(-c2sc3ccccc3c2-c2c(OC(=O)CCC)c(C)nn(C)c2=O)cc1 [1-029]
[1]
  Herbicidal effect on A: late watergrass (grade 0-5): 0 (Herbicidal rate of 5% or less (almost no effect))
[2]
  Herbicidal effect on B: Japanese bulrush (grade 0-5): 1 (Herbicidal rate of 5% or more and less than 20%)
[3]
  Herbicidal effect on C: oval-leafed pondweed (grade 0-5): 2 (Herbicidal rate of 20% or more and less than 40%)
[7]; [23]
  herbicidal effect grade, F: southern crabgrass: 0 (Herbicidal rate of 5% or less (almost no effect))
[8]; [23]
  herbicidal effect grade, G: green foxtail: 0 (Herbicidal rate of 5% or less (almost no effect))
[9]; [23]
  herbicidal effect grade, H: barnyard grass: 0 (Herbicidal rate of 5% or less (almost no effect))
[10]; [23]
  herbicidal effect grade, I: wild oat: 0 (Herbicidal rate of 5% or less (almost no effect))
[11]; [23]
  herbicidal effect grade, J: blackgrass: 0 (Herbicidal rate of 5% or less (almost no effect))
[12]; [23]
  herbicidal effect grade, K: Italian ryegrass: 0 (Herbicidal rate of 5% or less (almost no effect))
[13]; [23]
  herbicidal effect grade, L: windgrass: 0 (Herbicidal rate of 5% or less (almost no effect))
[14]; [23]
  herbicidal effect grade, M: velvetleaf: 2 (Herbicidal rate of 20% or more and less than 40%)
[15]; [23]
  herbicidal effect grade, N: redroot pigweed: 4 (Herbicidal rate of 70% or more and less than 90%)
[16]; [23]
  herbicidal effect grade, O: lambsquarters: 2 (Herbicidal rate of 20% or more and less than 40%)
[17]; [23]
  herbicidal effect grade, P: chickweed: 5 (Herbicidal rate of 90% or more (almost completely withered))
[18]; [23]
  herbicidal effect grade, Q: false cleavers: 1 (Herbicidal rate of 5% or more and less than 20%)
[19]; [23]
  herbicidal effect grade, R: persian speedwell: 0 (Herbicidal rate of 5% or less (almost no effect))
